# US8952024B2, “Herbicidal pyrimidone derivatives” (E I du Pont de Nemours and Company, priority 2009, dated 2015)
# Assays:
# Type in all cases: in vivo
# [1] = system: sunflower (common oilseed sunflower, Helianthus annuus); test: Test B pre-/postemergence plant response; conditions: Preemergence; for Sunflower plant response rating: 125 g ai/ha
# Summary of the method: (§1)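 Each species received compound formulated in non-phytotoxic solvent with surfactant, either at planting into a loam and sand blend or as a foliar spray once plants reached 2 to 18 cm in peat-based medium. Plants stayed in the greenhouse 13 to 15 days before visual evaluation against controls, scored 0 (no effect) to 100 (complete control).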
# [2] = system: nightshade (eastern black nightshade, Solanum ptycanthum); test: Test B pre-/postemergence plant response; conditions: Preemergence; for Nightshade plant response rating: 125 g ai/ha
# Summary of the method: as §1
# [3] = system: galium (catchweed bedstraw, Galium aparine); test: Test B pre-/postemergence plant response; conditions: Preemergence; for Galium plant response rating: 125 g ai/ha
# Summary of the method: as §1
# [4] = system: giant foxtail (Setaria faberii); test: Test A pre-/postemergence plant response
# Summary of the method: (§2)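 Seeds planted in loam soil/sand blend; test chemicals in non-phytotoxic solvent mixture with surfactant applied as directed soil spray preemergence and, concurrently, postemergence to plants 2–10 cm tall at one- to two-leaf stage. Greenhouse ~10 days; visual injury vs untreated controls, 0 (no effect) to 100 (complete control).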
# [5] = system: barnyardgrass (Echinochloa crus-galli); test: Test A pre-/postemergence plant response
# Summary of the method: as §2
# corn (Zea mays) = test: Test A pre-/postemergence plant response
# Summary of the method: as §2
# [6] = system: pigweed (Amaranthus retroflexus); test: Test A pre-/postemergence plant response
# Summary of the method: as §2
# [7] = system: goosegrass (Eleusine indica); test: Test B pre-/postemergence plant response; conditions: Preemergence, 62 g ai/ha; scale 0 to 100, 0 no effect, 100 complete control
# [8] = system: ducksalad (Heteranthera limosa); test: Test B flooded paddy test; conditions: for Plant response rating, Flood, Ducksalad: 250 g ai/ha, flooded paddy test, visual rating on 0 to 100 scale (0 no effect, 100 complete control) after 13 to 15 days; for Plant response rating, Ducksalad: Flood (flooded paddy test), 13 to 15 days
# Summary of the method: (§3)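 Each compound is added to standing floodwater (3 cm above soil, maintained) in pots of 2-leaf-stage plants; greenhouse exposure lasts 13–15 d before visual comparison with controls on a 0–100 control scale.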
# [9] = system: barnyardgrass (Echinochloa crus-galli); test: Test B flooded paddy test; conditions: for Plant response rating, Flood, Barnyardgrass: 250 g ai/ha, flooded paddy test, visual rating on 0 to 100 scale (0 no effect, 100 complete control) after 13 to 15 days; for Plant response rating, Barnyardgrass: Flood (flooded paddy test), 13 to 15 days
# Summary of the method: as §3
# rice (Oryza sativa) = test: Test B flooded paddy test; conditions: for Plant response rating, Flood, Rice: 250 g ai/ha, flooded paddy test, visual rating on 0 to 100 scale (0 no effect, 100 complete control) after 13 to 15 days; for Plant response rating, Rice: Flood (flooded paddy test), 13 to 15 days
# Summary of the method: as §3
# [10] = system: umbrella sedge (Cyperus difformis); test: Test B flooded paddy test; conditions: for Plant response rating, Flood, Sedge, Umbrella: 250 g ai/ha, flooded paddy test, visual rating on 0 to 100 scale (0 no effect, 100 complete control) after 13 to 15 days; for Plant response rating, Sedge, Umbrella: Flood (flooded paddy test), 13 to 15 days
# Summary of the method: as §3
# [11] = 31 g ai/ha, scale 0 to 100 (0 no effect, 100 complete control)
# [12] = 62 g ai/ha, scale 0 to 100, 0 no effect, 100 complete control
# [13] = Postemergence, 125 g ai/ha, visual injury, 0 to 100 scale (0 no effect, 100 complete control), approx. ten days
# [14] = Postemergence, 500 g ai/ha, 0 to 100 scale, 0 = no effect, 100 = complete control, approx. ten days
# [15] = Preemergence, 125 g ai/ha, 0 to 100 scale, 0 = no effect, 100 = complete control
# [16] = Preemergence, 500 g ai/ha, visual injury, 0 to 100 scale (0 no effect, 100 complete control), approx. ten days
# [17] = 31 g ai/ha, scale of 0 to 100 where 0 is no effect and 100 is complete control
# [18] = 62 g ai/ha, scale 0 to 100, 0 is no effect, 100 is complete control
# [19] = 125 g ai/ha, scale 0 to 100, 0 is no effect, 100 is complete control
smiles,measurement,setting,value
O=C1CCCC([O-])=C1C(=O)c1cnc(-c2ccccc2)n(-c2ccccc2)c1=O.[K+] [Compound 14],"Plant response rating, Sunflower","[1]; 250 g ai/ha, 0 to 100 scale",98
same,"Plant response rating, Sunflower",[1]; [11],50
same,"Plant response rating, Sunflower",[1]; [12],85
same,Sunflower plant response rating,[1]; 0 to 100 scale,85
same,"Plant response rating, Nightshade","[2]; 250 g ai/ha, 0 to 100 scale",100
same,"Plant response rating, Nightshade",[2]; [11],85
same,"Plant response rating, Nightshade",[2]; [12],98
same,Nightshade plant response rating,[2]; 0 to 100 scale,100
same,"Plant response rating, Galium","[3]; 250 g ai/ha, 0 to 100 scale",80
same,"Plant response rating, Galium",[3]; [11],0
same,"Plant response rating, Galium",[3]; [12],0
same,Galium plant response rating,[3]; 0 to 100 scale,40
same,"Foxtail, Giant plant response rating",[4]; [13],30
same,"Plant response rating, Foxtail, Giant",[4]; [14],90
same,"Plant response rating, Foxtail, Giant",[4]; [15],40
same,"Plant response rating, Foxtail, Giant",[4]; [16],90
same,Barnyardgrass plant response rating,[5]; [13],30
same,"Plant response rating, Barnyardgrass",[5]; [14],80
same,"Plant response rating, Barnyardgrass",[5]; [15],10
same,"Plant response rating, Barnyardgrass",[5]; [16],70
same,Corn plant response rating,corn (Zea mays); [13],0
same,"Plant response rating, Corn",corn (Zea mays); [14],20
same,"Plant response rating, Corn",corn (Zea mays); [15],0
same,"Plant response rating, Corn",corn (Zea mays); [16],0
same,Pigweed plant response rating,[6]; [13],80
same,"Plant response rating, Pigweed",[6]; [14],100
same,"Plant response rating, Pigweed",[6]; [15],100
same,"Plant response rating, Pigweed",[6]; [16],100
same,"Plant response rating, Goosegrass",[7],85
same,"Plant response rating, Flood, Ducksalad",[8],40
same,"Plant response rating, Ducksalad",[8]; [17],0
same,"Plant response rating, Ducksalad",[8]; [18],20
same,"Plant response rating, Ducksalad",[8]; [19],30
same,"Plant response rating, Flood, Barnyardgrass",[9],0
same,"Plant response rating, Barnyardgrass",[9]; [17],0
same,"Plant response rating, Barnyardgrass",[9]; [18],0
same,"Plant response rating, Barnyardgrass",[9]; [19],0
same,"Plant response rating, Flood, Rice",rice (Oryza sativa),0
same,"Plant response rating, Rice",rice (Oryza sativa); [17],0
same,"Plant response rating, Rice",rice (Oryza sativa); [18],0
same,"Plant response rating, Rice",rice (Oryza sativa); [19],0
same,"Plant response rating, Flood, Sedge, Umbrella",[10],40
same,"Plant response rating, Sedge, Umbrella",[10]; [17],0
same,"Plant response rating, Sedge, Umbrella",[10]; [18],0
same,"Plant response rating, Sedge, Umbrella",[10]; [19],0
O=C1CCCC(O)=C1C(=O)c1cnc(-c2ccccc2)n(-c2ccc(F)cc2)c1=O [Compound 24],"Plant response rating, Sunflower","[1]; 250 g ai/ha, 0 to 100 scale",98
same,"Plant response rating, Sunflower",[1]; [11],85
same,"Plant response rating, Sunflower",[1]; [12],90
same,Sunflower plant response rating,[1]; 0 to 100 scale,95
same,"Plant response rating, Nightshade","[2]; 250 g ai/ha, 0 to 100 scale",100
same,"Plant response rating, Nightshade",[2]; [11],90
same,"Plant response rating, Nightshade",[2]; [12],98
same,Nightshade plant response rating,[2]; 0 to 100 scale,100
same,"Plant response rating, Galium","[3]; 250 g ai/ha, 0 to 100 scale",80
same,"Plant response rating, Galium",[3]; [11],0
same,"Plant response rating, Galium",[3]; [12],0
same,Galium plant response rating,[3]; 0 to 100 scale,10
same,"Foxtail, Giant plant response rating",[4]; [13],70
same,"Plant response rating, Foxtail, Giant",[4]; [14],90
same,"Plant response rating, Foxtail, Giant",[4]; [15],40
same,"Plant response rating, Foxtail, Giant",[4]; [16],100
same,Barnyardgrass plant response rating,[5]; [13],10
same,"Plant response rating, Barnyardgrass",[5]; [14],70
same,"Plant response rating, Barnyardgrass",[5]; [15],10
same,"Plant response rating, Barnyardgrass",[5]; [16],90
same,Corn plant response rating,corn (Zea mays); [13],0
same,"Plant response rating, Corn",corn (Zea mays); [14],30
same,"Plant response rating, Corn",corn (Zea mays); [15],0
same,"Plant response rating, Corn",corn (Zea mays); [16],0
same,Pigweed plant response rating,[6]; [13],90
same,"Plant response rating, Pigweed",[6]; [14],100
same,"Plant response rating, Pigweed",[6]; [15],90
same,"Plant response rating, Pigweed",[6]; [16],100
same,"Plant response rating, Goosegrass",[7],98
same,"Plant response rating, Flood, Ducksalad",[8],75
same,"Plant response rating, Ducksalad",[8]; [18],20
same,"Plant response rating, Flood, Barnyardgrass",[9],20
same,"Plant response rating, Barnyardgrass",[9]; [18],0
same,"Plant response rating, Flood, Rice",rice (Oryza sativa),0
same,"Plant response rating, Rice",rice (Oryza sativa); [18],0
same,"Plant response rating, Flood, Sedge, Umbrella",[10],75
same,"Plant response rating, Sedge, Umbrella",[10]; [18],0
Cc1cccc(-n2c(-c3ccccc3)ncc(C(=O)C3=C(O)CCCC3=O)c2=O)c1C [Compound 27],"Plant response rating, Sunflower","[1]; 250 g ai/ha, 0 to 100 scale",100
same,"Plant response rating, Sunflower",[1]; [11],75
same,"Plant response rating, Sunflower",[1]; [12],75
same,Sunflower plant response rating,[1]; 0 to 100 scale,90
same,"Plant response rating, Nightshade","[2]; 250 g ai/ha, 0 to 100 scale",100
same,"Plant response rating, Nightshade",[2]; [11],80
same,"Plant response rating, Nightshade",[2]; [12],98
same,Nightshade plant response rating,[2]; 0 to 100 scale,100
same,"Plant response rating, Galium","[3]; 250 g ai/ha, 0 to 100 scale",95
same,"Plant response rating, Galium",[3]; [11],0
same,"Plant response rating, Galium",[3]; [12],50
same,Galium plant response rating,[3]; 0 to 100 scale,85
same,"Foxtail, Giant plant response rating",[4]; [13],80
same,"Plant response rating, Foxtail, Giant",[4]; [14],90
same,"Plant response rating, Foxtail, Giant",[4]; [15],30
same,"Plant response rating, Foxtail, Giant",[4]; [16],90
same,Barnyardgrass plant response rating,[5]; [13],50
same,"Plant response rating, Barnyardgrass",[5]; [14],90
same,"Plant response rating, Barnyardgrass",[5]; [15],10
same,"Plant response rating, Barnyardgrass",[5]; [16],80
same,Corn plant response rating,corn (Zea mays); [13],0
same,"Plant response rating, Corn",corn (Zea mays); [14],30
same,"Plant response rating, Corn",corn (Zea mays); [15],0
same,"Plant response rating, Corn",corn (Zea mays); [16],0
same,Pigweed plant response rating,[6]; [13],100
same,"Plant response rating, Pigweed",[6]; [14],100
same,"Plant response rating, Pigweed",[6]; [15],70
same,"Plant response rating, Pigweed",[6]; [16],90
same,"Plant response rating, Goosegrass",[7],98
same,"Plant response rating, Flood, Ducksalad",[8],85
same,"Plant response rating, Ducksalad",[8]; [18],75
same,"Plant response rating, Flood, Barnyardgrass",[9],40
same,"Plant response rating, Barnyardgrass",[9]; [18],0
same,"Plant response rating, Flood, Rice",rice (Oryza sativa),0
same,"Plant response rating, Rice",rice (Oryza sativa); [18],0
same,"Plant response rating, Flood, Sedge, Umbrella",[10],85
same,"Plant response rating, Sedge, Umbrella",[10]; [18],75
Cc1ccc(C)c(-n2c(-c3ccccc3)ncc(C(=O)C3=C(O)CCCC3=O)c2=O)c1 [Compound 29],"Plant response rating, Sunflower","[1]; 250 g ai/ha, 0 to 100 scale",100
same,"Plant response rating, Sunflower",[1]; [11],75
same,"Plant response rating, Sunflower",[1]; [12],85
same,Sunflower plant response rating,[1]; 0 to 100 scale,90
same,"Plant response rating, Nightshade","[2]; 250 g ai/ha, 0 to 100 scale",100
same,"Plant response rating, Nightshade",[2]; [11],90
same,"Plant response rating, Nightshade",[2]; [12],90
same,Nightshade plant response rating,[2]; 0 to 100 scale,100
same,"Plant response rating, Galium","[3]; 250 g ai/ha, 0 to 100 scale",100
same,"Plant response rating, Galium",[3]; [11],50
same,"Plant response rating, Galium",[3]; [12],80
same,Galium plant response rating,[3]; 0 to 100 scale,98
same,"Foxtail, Giant plant response rating",[4]; [13],70
same,"Plant response rating, Foxtail, Giant",[4]; [14],90
same,"Plant response rating, Foxtail, Giant",[4]; [15],30
same,"Plant response rating, Foxtail, Giant",[4]; [16],100
same,Barnyardgrass plant response rating,[5]; [13],20
same,"Plant response rating, Barnyardgrass",[5]; [14],90
same,"Plant response rating, Barnyardgrass",[5]; [15],0
same,"Plant response rating, Barnyardgrass",[5]; [16],100
same,Corn plant response rating,corn (Zea mays); [13],0
same,"Plant response rating, Corn",corn (Zea mays); [14],10
same,"Plant response rating, Corn",corn (Zea mays); [15],0
same,"Plant response rating, Corn",corn (Zea mays); [16],0
same,Pigweed plant response rating,[6]; [13],80
same,"Plant response rating, Pigweed",[6]; [14],100
same,"Plant response rating, Pigweed",[6]; [15],50
same,"Plant response rating, Pigweed",[6]; [16],100
same,"Plant response rating, Goosegrass",[7],100
same,"Plant response rating, Flood, Ducksalad",[8],85
same,"Plant response rating, Ducksalad",[8]; [18],70
same,"Plant response rating, Flood, Barnyardgrass",[9],30
same,"Plant response rating, Barnyardgrass",[9]; [18],0
same,"Plant response rating, Flood, Rice",rice (Oryza sativa),0
same,"Plant response rating, Rice",rice (Oryza sativa); [18],0
same,"Plant response rating, Flood, Sedge, Umbrella",[10],80
same,"Plant response rating, Sedge, Umbrella",[10]; [18],70
